Results as given in publication PMC10094593, “Chemical Space Virtual Screening against Hard-to-Drug RNA Methyltransferases DNMT2 and NSUN6” (International Journal of Molecular Sciences, 2023).
Read-outs that look alike come from different tables or passages of the source.

What was measured:
[1] = target: T1, NSUN6 (Homo sapiens, UniProt Q8TEA1); assay: Microscale thermophoresis (MST) binding assay, NSUN6; settings: for Kd: MST dose-response curve; for MST pre-screening: ligand concentration 33, 100, 300 µM
T1 construct: host or cells: E. coli Rosetta2
T1 sequence (Q8TEA1 1-469): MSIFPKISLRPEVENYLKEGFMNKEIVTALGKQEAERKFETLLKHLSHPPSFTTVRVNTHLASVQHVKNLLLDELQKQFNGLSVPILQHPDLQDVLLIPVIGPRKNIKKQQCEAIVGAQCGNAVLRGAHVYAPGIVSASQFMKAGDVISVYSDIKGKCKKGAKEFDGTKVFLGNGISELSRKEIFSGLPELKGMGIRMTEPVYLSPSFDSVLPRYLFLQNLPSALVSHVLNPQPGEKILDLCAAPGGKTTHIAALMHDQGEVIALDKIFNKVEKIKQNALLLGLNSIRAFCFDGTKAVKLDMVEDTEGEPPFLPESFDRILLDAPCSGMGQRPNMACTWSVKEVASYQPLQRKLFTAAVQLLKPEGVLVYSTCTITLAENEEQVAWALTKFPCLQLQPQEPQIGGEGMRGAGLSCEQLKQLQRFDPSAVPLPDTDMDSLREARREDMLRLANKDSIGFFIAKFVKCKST
Procedure: (§1) Since the constructs of DNMT2 and NSUN6 contain hexa-histidine tags, proteins were labeled using a Monolith His-Tag Labeling Kit RED-Tris-NTA 2nd generation according to the manufacturer’s instructions. This labeling strategy was chosen since it should prevent any interference with the actual binding site of the proteins. Labeled protein was diluted to a concentration of 20 nM into MST buffer (50 mM Hepes, pH 7.5, 150 mM NaCl, 10 mM MgCl2, 1 mM DTT, 0.05% polysorbate-20, 0.1% PEG-8000). All compounds were prepared as stocks dissolved in DMSO to a concentration of 50 mM. […] All measurements were performed on a Monolith Pico instrument (NanoTemper Technologies, Muenchen, Germany) with red light. To induce thermophoresis, medium MST power was selected for DNMT2 and high MST power for NSUN6. All experiments were performed in quadruplicates. […] Obtained dilutions were then mixed 1:1 with labeled protein (20 nM) and incubated for 5 min at room temperature prior to measurement. Experiments were performed in duplicates. All data received were analyzed using the MO. Affinity Analysis software version 2.3 (NanoTemper Technologies, Muenchen, Germany).

[2] = target: T2, DNMT2 (Homo sapiens, UniProt O14717); assay: Microscale thermophoresis (MST) binding assay, DNMT2; settings: for MST pre-screening: DNMT2, ligand concentration 33, 100, 300 µM
T2 construct: made in house; host or cells: E. coli Rosetta2
T2 sequence (O14717 1-391): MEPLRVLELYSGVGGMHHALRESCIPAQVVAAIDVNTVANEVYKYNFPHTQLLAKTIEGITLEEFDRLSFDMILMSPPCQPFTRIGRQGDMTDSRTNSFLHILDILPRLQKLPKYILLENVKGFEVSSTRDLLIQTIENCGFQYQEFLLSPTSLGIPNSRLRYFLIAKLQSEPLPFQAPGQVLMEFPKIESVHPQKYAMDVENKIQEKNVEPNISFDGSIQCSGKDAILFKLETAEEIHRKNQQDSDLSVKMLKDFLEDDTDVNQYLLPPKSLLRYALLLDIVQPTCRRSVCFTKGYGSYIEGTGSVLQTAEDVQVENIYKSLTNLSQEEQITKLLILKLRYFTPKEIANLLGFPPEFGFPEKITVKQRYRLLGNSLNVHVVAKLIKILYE
Procedure: as §1

[3] = NSUN6, ≥ = lower limit, upper plateau not completely reached, read-out: KD,app

Row | Kd [1, 3] | SMILES | MST pre-screening ([1]; NSUN6) | MST pre-screening [2] | other results
1 | ≥ 369 µM | CN1CCN(CC[C@@H](N)C(=O)Nc2ccc(-n3ccc(O)n3)c(F)c2)CC1 (racemic) [Compound 2.1] | concentration-dependent MST-shift (binding) | – | –
2 | 16.4 µM | Cn1cnc([C@@H]2CNC[C@H]2C(=O)N2CCC[C@@H](CNC(=O)[C@H]3CCCN3)C2)c1 (racemic) [Compound 2.4] | concentration-dependent MST-shift (binding) | – | –
3 | – | Cc1n[nH]c(C)c1NC(=O)CN1CCN(C(=O)c2ccc(C(N)=O)s2)CC1 [Compound 1.2] | – | no concentration-dependent MST-shift (no binding) | –
4 | – | CNC(=O)c1cccc(CN[C@H]2CCCN(C(=O)c3coc(C(N)=O)c3)C2)c1 [Compound 1.3] | – | no concentration-dependent MST-shift (no binding) | –
5 | 12 µM | O=C(NCCN/C(O)=C1\N=CC=CC1=O)Nc1cccc2c1CNC2=O [Compound 1.4] | – | – | –
6 | – | CNC(=O)c1cccc(CN2CCC[C@H](NC(=O)c3coc(C(N)=O)c3)C2)c1 [Compound 1.5] | – | no concentration-dependent MST-shift (no binding) | –
7 | – | C[C@@H](NC(=O)Nc1ccc(C(N)=O)c(F)c1)c1cccc(N2CCOC2=O)c1 [Compound 1.9] | – | no concentration-dependent MST-shift (no binding) | –
8 | – | O=C(NCc1cccc2ncccc12)Nc1ccc(C[C@H]2NC(=O)NC2=O)cc1 [Compound 1.12] | – | no concentration-dependent MST-shift (no binding) | –
9 | ≥ 116 µM | Nc1ncnc2cc(C(=O)NCC(=O)Nc3ccc4c(c3)OCCO4)ccc12 [Compound 1.14] | – | – | –
10 | – | Cc1ccc(F)c(-n2cc(O)c(C(=O)NNc3cc(O)nc4ncccc34)n2)c1 [Compound 1.16] | – | no concentration-dependent MST-shift (no binding) | –
11 | – | N[C@H](CCS(N)(=O)=O)C(=O)Nc1ccc(C2CCNCC2)cc1 [Compound 2.3] | no concentration-dependent MST-shift (no binding) | – | –
12 | – | CN1CCC[C@@H]1CCC(=O)Nc1c[nH]nc1C(=O)NCC(N)=O [Compound 2.6] | no concentration-dependent MST-shift (no binding) | – | –
13 | 42 µM | COc1ccc(C(=O)Nc2cccc(CN[C@H](CN)CO)c2)cc1 [Compound 2.8] | concentration-dependent MST-shift (binding) | – | MST result DNMT2 ('off-target'/selectivity) ([2]; no MST shift at ligand concentration of up to 300 µM): [drawing 33] No binding; selectivity for NSUN6 over DNMT2 ([2]; selective = no MST shift for the other enzyme up to 300 µM): selectivity
14 | – | O=C([C@@H]1NC[C@@H](O)[C@H]1O)N1CCN([C@@H]2CCN(c3ccccc3)C2=O)CC1 [Compound 2.11] | no concentration-dependent MST-shift (no binding) | – | –
15 | – | Nc1ncnc2c1ncn2[C@@H]1O[C@H](CSCC[C@H](N)C(=O)O)[C@@H](O)[C@H]1O [SAH, S-adenosyl-L-homocysteine, reference compound] | – | – | Kd ([2]; MST dose-response curve, DNMT2, reference ligand): 11.8 µM; Kd ([1]; NSUN6, reference ligand, read-out: KD): 9.1 µM
